Columns and labels:
Mus musculus [1] = test: The compound was evaluated in vivo for antinociception (TF) activity in a mouse model; type: functional
Mus musculus [2] = test: The compound was evaluated in vivo for hypothermia(as rectal temperature) in a mouse model; type: functional
Mus musculus [3] = test: The compound was evaluated in vivo for spontaneous activity(SA) in a mouse model; type: functional
Cannabinoid receptor = Cannabinoid receptor (Homo sapiens, UniProt P34972+P21554); test: The affinity of compound for the cannabinoid brain receptor was determined by measuring its ability to displace [3H]CP-55940 from its binding site in a membrane preparation; type: cell membranes

SMILES: CCCCCCC(C)(C)c1cc(O)c2c(c1)OC(C)(C)[C@@H]1CC=C(CO)C[C@@H]21
- ED50 (Mus musculus [1]): 0.02 µmol/kg
- ED50 (Mus musculus [2]): 0.05 µmol/kg
- ED50 (Mus musculus [3]): 0.01 µmol/kg

SMILES: CC1=CC[C@@H]2[C@H](C1)c1c(O)cc(C(C)C(C)C3CCCC3)cc1OC2(C)C (stereo partly specified)
- Ki (Cannabinoid receptor): 600 pM
- ED50 (Mus musculus [1]): 0.1 µmol/kg
- ED50 (Mus musculus [2]): 0.07 µmol/kg
- ED50 (Mus musculus [3]): 0.04 µmol/kg

SMILES: CC1=CC[C@@H]2[C@@H](C1)c1c(O)cc(C(C)C(C)C3CCCC3)cc1OC2(C)C (stereo partly specified)
- Ki (Cannabinoid receptor): 840 pM
- ED50 (Mus musculus [1]): 0.42 µmol/kg
- ED50 (Mus musculus [2]): 0.63 µmol/kg
- ED50 (Mus musculus [3]): 0.45 µmol/kg

SMILES: CC1=CC[C@H]2[C@H](C1)c1c(O)cc(C(C)C(C)C3CCCC3)cc1OC2(C)C (stereo partly specified)
- Ki (Cannabinoid receptor): 810 pM
- ED50 (Mus musculus [1]): 0.18 µmol/kg
- ED50 (Mus musculus [2]): 0.19 µmol/kg
- ED50 (Mus musculus [3]): 0.12 µmol/kg

SMILES: CC1=CC[C@H]2[C@@H](C1)c1c(O)cc(C(C)C(C)C3CCCC3)cc1OC2(C)C (stereo partly specified)
- Ki (Cannabinoid receptor): 460 pM
- ED50 (Mus musculus [1]): 0.03 µmol/kg
- ED50 (Mus musculus [2]): 0.07 µmol/kg
- ED50 (Mus musculus [3]): 0.03 µmol/kg

SMILES: CCCCCCC(C)(C)c1cc(O)c2c(c1)OC(C)(C)[C@@H]1CC=C(C)C[C@@H]21
- Ki (Cannabinoid receptor): 770 pM
- ED50 (Mus musculus [1]): 0.14 µmol/kg
- ED50 (Mus musculus [2]): 0.15 µmol/kg
- ED50 (Mus musculus [3]): 0.27 µmol/kg

SMILES: CCCCCc1cc(O)c2c(c1)OC(C)(C)[C@@H]1CC=C(C)C[C@@H]21 [DELTA-8-TETRAHYDROCANNABINOL]
- ED50 (Mus musculus [1]): 4.5 µmol/kg
- ED50 (Mus musculus [2]): 4.8 µmol/kg
- ED50 (Mus musculus [3]): 2.9 µmol/kg
